Patent publication US20090012595A1, “Therapeutic Drug-Eluting Endoluminal Covering” (priority 2003, published 2009)

Experiment: Paclitaxel release from films into octanol/PBS or octanol/water, 232 nm
Assay type: physicochemical
Conditions: PBS versus water, 0, 4 and 72 hours, 37° C., continuous shaking
Protocol: Paclitaxel release—Small samples (circular discs, 8 mm) of the Paclitaxel films were placed in a solution of octanol and phosphate buffered saline (PBS) or water at a proportion of 5 ml Octanol and 10 ml PBS (or water). The solution, including the film disc, was shaken continuously at 37° C. for several days. The amount of Paclitaxel in the octanol phase of the solution was measured using a spectrophotometer at 232 nm. Measurements were carried out periodically and the amount of drug released was normalized to baseline values for control films containing no drug.

- Profile of drug release from films: significantly faster than in water
Compound: CC(=O)O[C@H]1C(=O)[C@@]2(C)[C@H]([C@H](OC(=O)c3ccccc3)[C@]3(O)C[C@H](OC(=O)[C@H](O)[C@@H](NC(=O)c4ccccc4)c4ccccc4)C(C)=C1C3(C)C)[C@]1(OC(C)=O)CO[C@@H]1C[C@@H]2O [paclitaxel]
